# Measurements: patent US10828315B2 (Madrigal Pharmaceuticals, Inc., priority 2013, dated 2020)
# Read-outs that look alike come from different tables or passages of the source.
# Columns and labels:
# [1] = Physical appearance of SDC-TRAP-0063 formulations and infusion solutions with different diluents and carbonate buffers; format: physicochemical
# Procedure: First, a stock solution of SDC-TRAP-0063 was prepared in DMSO at 22 mg/mL, then the required amount of tween 80 was added and mixed well.
# The above formulation containing SDC-TRAP-0063 was diluted using either D5W, D5W (pH 10.5, adjusted with 4.55 mM NaOH) or carbonate buffer, pH 10) (final drug concentration.: 1 mg/mL SDC-TRAP-0063, 1.8% v/v Tween 80, 5% v/v DMSO). The physical observations on these solutions were noted before and filtration through 0.22μ PES filter and were further observed for 3 hr. Refer to the table below for summary of observations. Note: Carbonate buffer, pH 10 was prepared by mixing 0.1M sodium carbonate (27.5 mL) and 0.1M sodium bicarbonate (22.5 mL) and qs 200 mL with DIW. The total Na content of carbonate buffer was 39 mM.
# A stock solution of SDC-TRAP-0063 was prepared in either DMSO or PEG-300. To prepare formulations containing DMSO and tween 80, required amount of tween 80 added to the stock of DMSO (containing SDC-TRAP-0063). The formulations were then was diluted with carbonate buffer, pH 10 (composition: add and mix 0.1M sodium carbonate (27.5 mL) and 0.1M sodium bicarbonate (22.5 mL) and qs 200 mL with DIW). The samples (prepared in glass vial) were mixed well and observed for physical appearance while stirring on a magnetic stirring plate at ambient. (Note-appropriate amounts of SDC-TRAP-0063, tween 80, DMSO and PEG-300, as applicable were used to prepare the solutions at the desired concentrations and drug concentrations at 1 mg/mL through 5 mg/mL as shown).
# Carbonate buffers of different pH (pH 9-10) and ionic strengths (with higher (>2) Na contents that SDC-TRAP-0063 on molar basis) were prepared and used for diluting the DMSO/tween 80 formulation loaded with SDC-TRAP-0063 (as described in earlier section 3). The final concentrations of DMSO and tween 80 in the diluted carbonate buffer were 5% v/v and 1.8% v/v respectively. The drug concentration was kept constant (5 mg/mL) for all diluted samples.
# [2] = mouse, in vivo; for Tumor Conc.: female, SCID
# Procedure: Using the 10 mM stock solutions of the SDC-TRAP molecule and its Hsp90i binding moiety and effector moiety in DMSO, spiking solutions were prepared at 0.025, 0.05, 0.1, 0.5, 1, 5, 10, 50, 100, 250, and 500 μM in DMSO. 5 μL of each spiking solution was added to a 96-deep well plate.
# Quality control standards were prepared from 5 μL of 0.1, 1, and 10 μM calibration standard spiking solution added in triplicate into 96-deep well plate and adding 50 μL of matrix (plasma or homogenized tumor).
# To prepare test samples, test plasma was diluted as needed using blank plasma.
# Tumor samples were pulverized in liquid nitrogen, weighed, and homogenized in PBS at 5× volume to sample weight. 50 μL of unknown plasma or homogenized tumor sample was mixed with 5 μL of DMSO. The samples were extracted by precipitating calibration standards, QC standards, and unknown samples with 200 μL of internal standard solution. The samples were mixed by vortex at room temperature for approximately 1.5 minutes, then centrifuge at 2-8° C. 150 μL of supernatant was collected and 25 μL of water added. Samples were mixed and analyzed by LC-MS/MS.
# Samples of plasma, heart and tumor were excised from a euthanized mouse, homogenized in PBS at 5 times tissue weight and diluted in 5 μL DMSO/50 μL sample. Prior to analysis, 55 μL samples and calibration standards were precipitated in 200 μL methanol in 96-well plates. Samples were mixed on a vortex mixer for 1.5 minutes at 1500 rpm at room temperature, then centrifuged at 4400 rpm for 10 minutes at 8° C. 150 μL of each supernatant was transferred to a well of a new 96-well plate, and 25 μL of water was added and mixed with the sample. […] For the analysis of samples from female SCID mice, a gradient of solvent A (water/0.1% formic acid) and B (acetonitrile/0.1% formic acid) was used as in Table 2 below.
# Various SDC-TRAP molecules and appropriate controls were administered to mice and after various time points the plasma and tumor concentration of these molecules was determined.
compound,measurement,setting,value
"CCc1c2c(nc3ccc(OC(=O)N4CCC(CCn5ccc6cc(-n7c(O)nnc7-c7cc(C(C)C)c(O)cc7O)ccc65)CC4)cc13)-c1cc3c(c(=O)n1C2)COC(=O)[C@]3(O)CC [SDC-TRAP-0063, 4,11-diethyl-4-hydroxy-3,14-dioxo-3,4,12,14-tetrahydro-1H-pyrano[3′,4′:6,7]indolizino[1,2-b]quinolin-9-yl 4-(2-(5-(3-(2,4-dihydroxy-5-isopropylphenyl)-5-hydroxy-4H-1,2,4-triazol-4-yl)-1H-indol-1-yl)ethyl)piperidine-1-carboxylate]",Observations (physical appearance),"[1]; 5% v/v DMSO, carbonate buffer pH 10 (39 mM Na), 1 mg/mL, Overnight",Clear yellow solution
same,Observations (physical appearance),"[1]; 5% v/v DMSO, carbonate buffer pH 10 (39 mM Na), 2 mg/mL, 30 min",Cloudy
same,Observations (physical appearance),"[1]; 5% v/v DMSO, carbonate buffer pH 10 (39 mM Na), 2 mg/mL, 1 h",Cloudy
same,Observations (physical appearance),"[1]; 5% v/v DMSO, carbonate buffer pH 10 (39 mM Na), 2 mg/mL, 6 h",Cloudy
same,Observations (physical appearance),"[1]; 5% v/v DMSO, carbonate buffer pH 10 (39 mM Na), 2 mg/mL, Initial",Cloudy
same,Observations (physical appearance),"[1]; 5% v/v DMSO, carbonate buffer pH 10 (39 mM Na), 2 mg/mL, Overnight",Opaque (less cloudy than at 6 h)
same,Observations (physical appearance),"[1]; 5% v/v DMSO, carbonate buffer pH 10 (39 mM Na), 3 mg/mL, 30 min",Cloudy
same,Observations (physical appearance),"[1]; 5% v/v DMSO, carbonate buffer pH 10 (39 mM Na), 3 mg/mL, 1 h",Cloudy
same,Observations (physical appearance),"[1]; 5% v/v DMSO, carbonate buffer pH 10 (39 mM Na), 3 mg/mL, 6 h",Cloudy
same,Observations (physical appearance),"[1]; 5% v/v DMSO, carbonate buffer pH 10 (39 mM Na), 3 mg/mL, Initial",Cloudy
same,Observations (physical appearance),"[1]; 5% v/v DMSO, carbonate buffer pH 10 (39 mM Na), 3 mg/mL, Overnight",Cloudy
same,Observations (physical appearance),"[1]; 5% v/v DMSO, carbonate buffer pH 10 (39 mM Na), 4 mg/mL, 30 min",Cloudy
same,Observations (physical appearance),"[1]; 5% v/v DMSO, carbonate buffer pH 10 (39 mM Na), 4 mg/mL, 1 h",Cloudy
same,Observations (physical appearance),"[1]; 5% v/v DMSO, carbonate buffer pH 10 (39 mM Na), 4 mg/mL, 6 h",Cloudy
same,Observations (physical appearance),"[1]; 5% v/v DMSO, carbonate buffer pH 10 (39 mM Na), 4 mg/mL, Initial",Cloudy
same,Observations (physical appearance),"[1]; 5% v/v DMSO, carbonate buffer pH 10 (39 mM Na), 4 mg/mL, Overnight",Cloudy
same,Observations (physical appearance),"[1]; 5% v/v DMSO, carbonate buffer pH 10 (39 mM Na), 5 mg/mL, 30 min",Cloudy
same,Observations (physical appearance),"[1]; 5% v/v DMSO, carbonate buffer pH 10 (39 mM Na), 5 mg/mL, 1 h",Cloudy
same,Observations (physical appearance),"[1]; 5% v/v DMSO, carbonate buffer pH 10 (39 mM Na), 5 mg/mL, 6 h",Cloudy
same,Observations (physical appearance),"[1]; 5% v/v DMSO, carbonate buffer pH 10 (39 mM Na), 5 mg/mL, Initial",Cloudy
same,Observations (physical appearance),"[1]; 5% v/v DMSO, carbonate buffer pH 10 (39 mM Na), 5 mg/mL, Overnight",Cloudy
same,"physical appearance after dilution with carbonate buffer, pH 10","[1]; DMSO alone 5% v/v, 2 mg/mL through 5 mg/mL",stayed cloudy for more than 24 h
same,"physical appearance after dilution with carbonate buffer, pH 10","[1]; PEG-300 formulations, 1 mg/mL and 2 mg/mL",appeared clear at 30 mm and 1 hr of stirring respectively
same,"physical appearance after dilution with carbonate buffer, pH 10","[1]; PEG-300 formulations, 3 mg/mL, 4 mg/mL and 5 mg/mL",took longer and were clear next day
same,Observations (physical appearance),"[1]; […] v/v PEG-300, carbonate buffer pH 10 (39 mM Na), 1 mg/mL, 30 min","clear,"
same,Observations (physical appearance),"[1]; […] v/v PEG-300, carbonate buffer pH 10 (39 mM Na), 1 mg/mL, 1 h","clear, yellow"
same,Observations (physical appearance),"[1]; […] v/v PEG-300, carbonate buffer pH 10 (39 mM Na), 1 mg/mL, 2 h","clear, yellow"
same,Observations (physical appearance),"[1]; […] v/v PEG-300, carbonate buffer pH 10 (39 mM Na), 1 mg/mL, Initial",slightly
same,Observations (physical appearance),"[1]; […] v/v PEG-300, carbonate buffer pH 10 (39 mM Na), 1 mg/mL, Overnight","clear, yellow"
same,Observations (physical appearance),"[1]; […] v/v PEG-300, carbonate buffer pH 10 (39 mM Na), 2 mg/mL, 30 min",Translucent
same,Observations (physical appearance),"[1]; […] v/v PEG-300, carbonate buffer pH 10 (39 mM Na), 2 mg/mL, 1 h","clear, yellow"
same,Observations (physical appearance),"[1]; […] v/v PEG-300, carbonate buffer pH 10 (39 mM Na), 2 mg/mL, 2 h","clear, yellow"
same,Observations (physical appearance),"[1]; […] v/v PEG-300, carbonate buffer pH 10 (39 mM Na), 2 mg/mL, Initial",cloudy
same,Observations (physical appearance),"[1]; […] v/v PEG-300, carbonate buffer pH 10 (39 mM Na), 2 mg/mL, Overnight","clear, yellow"
same,Observations (physical appearance),"[1]; […] v/v PEG-300, carbonate buffer pH 10 (39 mM Na), 3 mg/mL, 30 min",cloudy
same,Observations (physical appearance),"[1]; […] v/v PEG-300, carbonate buffer pH 10 (39 mM Na), 3 mg/mL, 1 h",cloudy
same,Observations (physical appearance),"[1]; […] v/v PEG-300, carbonate buffer pH 10 (39 mM Na), 3 mg/mL, 2 h",cloudy
same,Observations (physical appearance),"[1]; […] v/v PEG-300, carbonate buffer pH 10 (39 mM Na), 3 mg/mL, Initial",cloudy
same,Observations (physical appearance),"[1]; […] v/v PEG-300, carbonate buffer pH 10 (39 mM Na), 3 mg/mL, Overnight","clear, yellow"
same,Observations (physical appearance),"[1]; […] v/v PEG-300, carbonate buffer pH 10 (39 mM Na), 4 mg/mL, 30 min",cloudy
same,Observations (physical appearance),"[1]; […] v/v PEG-300, carbonate buffer pH 10 (39 mM Na), 4 mg/mL, 1 h",cloudy
same,Observations (physical appearance),"[1]; […] v/v PEG-300, carbonate buffer pH 10 (39 mM Na), 4 mg/mL, 2 h",cloudy
same,Observations (physical appearance),"[1]; […] v/v PEG-300, carbonate buffer pH 10 (39 mM Na), 4 mg/mL, Initial",cloudy
same,Observations (physical appearance),"[1]; […] v/v PEG-300, carbonate buffer pH 10 (39 mM Na), 4 mg/mL, Overnight","clear, yellow"
same,Observations (physical appearance),"[1]; […] v/v PEG-300, carbonate buffer pH 10 (39 mM Na), 5 mg/mL, 30 min",cloudy
same,Observations (physical appearance),"[1]; […] v/v PEG-300, carbonate buffer pH 10 (39 mM Na), 5 mg/mL, 1 h",cloudy
same,Observations (physical appearance),"[1]; […] v/v PEG-300, carbonate buffer pH 10 (39 mM Na), 5 mg/mL, 2 h",cloudy
same,Observations (physical appearance),"[1]; […] v/v PEG-300, carbonate buffer pH 10 (39 mM Na), 5 mg/mL, Initial",cloudy
same,Observations (physical appearance),"[1]; […] v/v PEG-300, carbonate buffer pH 10 (39 mM Na), 5 mg/mL, Overnight","clear, yellow"
same,achievable drug concentration in solution,"[1]; carbonate buffer pH about 10, high ionic strength, […] v/v tween 80 and 5% v/v DMSO",at least 5 mg/mL
same,time to clear solution,"[1]; high ionic strength carbonate buffer at pH 9.5, 5 mg/mL",≤ 3 h
same,physical appearance in lower pH carbonate buffers,"[1]; pH 9.3 and pH 9.5, 5% v/v DMSO + […] v/v tween 80, 5 mg/mL",remain cloudy even after stirring overnight
same,Tumor Conc.,[2]; 6 h,1.61 nmol/g of tissue
same,Tumor Conc.,[2]; 24 h,0.203 nmol/g of tissue
same,Tumor Conc.,[2]; 48 h,0.0188 nmol/g of tissue
same,Tumor Conc.,[2]; […],6.43 nmol/g of tissue
same,Plasma Conc.,[2],BQL
same,"tumor targeting (tissue distribution in plasma, tumor and heart)","[2]; iv, 50 mg/kg",selectively targets and accumulates in tumor cells
